pKd: −log10 of the molar value.
Experiments:
Conditions in all cases: 10 mM Tris-HCl, pH 7.4
[1] = tested on: DNA aptamer or structured DNA GGGACGACCAGGATTCGGTTCGGAAAGTCCAGTGCCTCGTTGGTCGTCCC
[2] = tested on: DNA aptamer or structured DNA GGGACGACCGTCCGAGTTTTAGGAGTGGTTGCATTGCGCTGGGAAGAGGTCGTCCC
[3] = tested on: DNA aptamer or structured DNA GGGACGACGGGGATTCGCGGATTCGGAGAAAAGGGCTCGTACGTCGTCCC
[4] = tested on: DNA aptamer or structured DNA GGGACGACTAGTGCCTTCGCGTTGTTCGGGAATCCGGTTCCGTCGTCCC
[5] = tested on: DNA aptamer or structured DNA GGGACGACTACAGGTCGTGCGTCGCTCGAGTTGGTGAGTGTGTCGTCCC
[6] = tested on: DNA aptamer or structured DNA GGGACGACAGGGATTCGCGGATTCGGAGAAAAGGGCTCGTACGTCGTCCC
[7] = tested on: DNA aptamer or structured DNA GGGACGACGGGGATTCGCGGATTCATAGAAAAGGGCTCGTCCGTCGTCCC
[8] = tested on: DNA aptamer or structured DNA GGGACGACTAGTGCCTTCGCGTTGTTCAGGAATCCGGTTCTGTCGTCCC
[9] = tested on: DNA aptamer or structured DNA CTTACGACGGTGGGGGGTTGGTAGGGGAGGAGCGCATCGTCGTAAG
[10] = tested on: DNA aptamer or structured DNA GGGACGACGGTACCCGCCGGTGCAGGATCTGGGGTGGTGTCGTCCC
[11] = tested on: DNA aptamer or structured DNA GGGACGACCCGTAGGGGTACACGCTCTATGGGGGCTGGGTCGTCCC
[12] = tested on: DNA aptamer or structured DNA GGGACGACGCAGCAGTCCATCTCTCAGCGAGTTCGTCAGTCGTCCC
[13] = tested on: DNA aptamer or structured DNA CTTACGACATCTGCGTGTGGCCGGTGTGAGGGAGGGATGTCGTAAG
[14] = tested on: DNA aptamer or structured DNA GGGACGACCGTTGTTCGAGCCTTGAGTACCATTGGTAGGTCGTCCC
[15] = tested on: DNA aptamer or structured DNA CTTACGACAGTAACGGTGGGTATATGGGATTTATGTTCGTCGTAAG
[16] = tested on: DNA aptamer or structured DNA GGGACGACGCGTAGGTTTCCTAGCTGTGCGTCGTTCAAGTCGTCCC
[17] = tested on: DNA aptamer or structured DNA GGGACGACGGAGGTTTAGGGTTTAGGTAGTGGGTTGAAGTCGTCCC
[18] = tested on: DNA aptamer or structured DNA CTTACGACCAGGCCTACGGAAGCAGCGTCAGCGGGGGGGTCGTAAG
[19] = tested on: DNA aptamer or structured DNA GGGACGACTAGCGCATGCGTTGTTCGAGGATACGAGTAGTCGTCCC
[20] = tested on: DNA aptamer or structured DNA GGGACGACTACGTAGCCCTGTCTCAGCGAGTTCGCGGAGTCGTCCC
[21] = tested on: DNA aptamer or structured DNA GGGACGACTGGCGCCGGATTCCCTAAGGTACACGGACTGTCGTCCC
[22] = tested on: DNA aptamer or structured DNA GGGACGACGCGTACTTCCAGTAGCCGTGCGTCGTTCAAGTCGTCCC
[23] = tested on: DNA aptamer or structured DNA GGGACGACAAAAATGGAAGCATTGGTTGTTGGTGCTTTGTCGTCCC
[24] = tested on: DNA aptamer or structured DNA GGGACGACGGCTTAGCAAAGCTAGTAGGGGTCCACGCTGTCGTCCC
[25] = tested on: DNA aptamer or structured DNA GGGACGACGAGGGCACGTCTGTGTGCAGGGTTTCGCGCGTCGTCCC
[26] = tested on: DNA aptamer or structured DNA GGGACGACAGAATGGCAGCATTGGTGAGTTGTTTGCCTGTCGTCCC
[27] = tested on: DNA aptamer or structured DNA GGGACGACGCGTACCATGGGTAGTTGCACGTCGTCCAAGTCGTCCC
[28] = tested on: DNA aptamer or structured DNA GGGACGACGGGGATTCGGTTCGTCATTTGGCAGTGCCTCGTACGTCGTCCC
[29] = tested on: DNA aptamer or structured DNA GGGACGACCAGAATGGAAGCATTGGTTGCCGCAGGGTGCCGCAGTCGTCCC
[30] = tested on: DNA aptamer or structured DNA GGGACGACAGGGCACGTCTCGGCATCGAGGGTTTCGCGGTCGTCCC
[31] = tested on: DNA aptamer or structured DNA GGGACGACTACAGGTCGTGCGTTGCTCGAGTTGGTGAGTGTGTCGTCCC
[32] = tested on: DNA aptamer or structured DNA GGGACGACATGGGATGGAGCTATGCGAGCATGTGGTGTGTCGTCCC
[33] = tested on: DNA aptamer or structured DNA GGGACGACGGCACGAGGTTATTCGTTGGTTGCACTGCGCTGGGAGGAAGTCGTCCC
[34] = tested on: DNA aptamer or structured DNA GGGACGACGAGTGCGGGGAGTGTGTTTCTGTGGGGGTCGTCGTCCC
Wherever binding call is given: call rule not given here.

NCCc1c[nH]c2ccc(O)cc12
binding call [1]: no binding | binding call [2]: binds | binding call [3]: no binding | binding call [4]: no binding | binding call [5]: no binding | binding call [6]: no binding | binding call [7]: no binding | binding call [8]: no binding | binding call [9]: no binding | binding call [10]: no binding

Cn1c(=O)c2c(ncn2C)n(C)c1=O
binding call [11]: no binding | binding call [12]: no binding | binding call [13]: no binding | binding call [14]: no binding | binding call [15]: binds | binding call [9]: no binding

CN(C)CCOC(c1ccccc1)c1ccccc1
binding call [1]: no binding | binding call [16]: no binding | binding call [11]: no binding | binding call [17]: binds | binding call [3]: no binding | binding call [4]: no binding | binding call [18]: no binding | binding call [8]: no binding | binding call [10]: binds

O=C1CC[C@@]2(O)[C@H]3Cc4ccc(O)c5c4[C@@]2(CCN3CC2CC2)[C@H]1O5
binding call [19]: no binding | binding call [1]: no binding | binding call [11]: no binding | binding call [3]: no binding | binding call [5]: no binding | binding call [20]: no binding | binding call [6]: no binding | binding call [21]: no binding | binding call [22]: no binding | binding call [23]: no binding | binding call [24]: no binding | binding call [8]: no binding | binding call [25]: binds | binding call [26]: no binding | binding call [27]: no binding

CCN(CC)CCOC(=O)c1ccc(N)cc1
binding call [19]: no binding | binding call [28]: no binding | binding call [1]: no binding | binding call [29]: no binding | binding call [17]: no binding | binding call [3]: no binding | binding call [5]: no binding | binding call [18]: no binding | binding call [6]: no binding | binding call [30]: no binding | binding call [31]: no binding | binding call [13]: binds | binding call [7]: no binding | binding call [23]: no binding | binding call [15]: no binding | binding call [8]: no binding | binding call [26]: no binding | binding call [10]: binds

C=C[C@H]1CN2CC[C@@H]1C[C@H]2[C@H](O)c1ccnc2ccc(OC)cc12
binding call [19]: no binding | binding call [1]: binds | binding call [32]: binds | binding call [2]: binds | binding call [3]: no binding | binding call [4]: no binding | binding call [18]: no binding | binding call [6]: no binding | binding call [30]: no binding | binding call [31]: no binding | binding call [22]: no binding | binding call [23]: no binding | binding call [33]: binds | binding call [8]: binds | binding call [25]: no binding | binding call [10]: binds

COc1ccc2c3c1O[C@H]1C(=O)CC[C@@]4(O)[C@@H](C2)N(C)CC[C@]314
pKd [34]: 6.00 | pKd [11]: 6.30 | pKd [32]: 5.50 | pKd [12]: 5.65 | binding call [29]: no binding | binding call [17]: no binding | pKd [20]: 5.94 | pKd [21]: 5.51 | pKd [24]: 6.05 | binding call [26]: no binding

CN1CC[C@]23c4c5ccc(O)c4O[C@H]2[C@@H](O)C=C[C@H]3[C@H]1C5
pKd [28]: 5.82 | pKd [1]: 5.51 | binding call [2]: no binding | pKd [3]: 5.64 | pKd [4]: 4.71 | pKd [5]: 5.46 | binding call [18]: no binding | pKd [7]: 5.60 | binding call [33]: no binding | pKd [8]: 4.86

COC(=O)[C@@H]1C2CCC(C[C@@H]1OC(=O)c1ccccc1)N2C (stereo partly drawn)
binding call [32]: no binding | binding call [29]: no binding | binding call [17]: no binding | binding call [20]: no binding | binding call [30]: no binding | binding call [23]: no binding | pKd [15]: 6.55 | pKd [9]: 5.96 | binding call [25]: no binding | binding call [10]: no binding

C=CCN1CC[C@]23c4c5ccc(O)c4O[C@H]2C(=O)CC[C@@]3(O)[C@H]1C5
binding call [1]: no binding | binding call [16]: no binding | binding call [11]: binds | binding call [32]: no binding | binding call [3]: no binding | binding call [5]: no binding | binding call [20]: no binding | binding call [30]: no binding | binding call [21]: no binding | binding call [22]: no binding | binding call [14]: no binding | binding call [23]: no binding | binding call [24]: binds | binding call [8]: no binding | binding call [25]: no binding | binding call [26]: no binding | binding call [27]: no binding

CCOC(=O)c1ccc(N)cc1
binding call [11]: no binding | binding call [18]: no binding | binding call [14]: no binding | binding call [23]: no binding | binding call [24]: no binding | binding call [15]: no binding | binding call [9]: no binding | binding call [26]: no binding

NCCc1ccc(O)c(O)c1
binding call [28]: no binding | binding call [1]: binds | binding call [2]: no binding | binding call [3]: no binding | binding call [5]: binds | binding call [6]: no binding | binding call [31]: binds | binding call [7]: no binding | binding call [15]: no binding | binding call [33]: no binding | binding call [8]: no binding | binding call [9]: no binding

CC(=O)Oc1ccc2c3c1O[C@H]1[C@@H](OC(C)=O)C=C[C@H]4[C@@H](C2)N(C)CC[C@@]341
pKd [19]: 5.57 | pKd [16]: 5.34 | binding call [17]: no binding | binding call [18]: no binding | pKd [30]: 5.32 | binding call [13]: binds | pKd [22]: 5.39 | pKd [14]: 5.64 | binding call [23]: no binding | pKd [25]: 5.42 | binding call [26]: no binding | pKd [27]: 5.25
